For 13 compounds, TGI and GI50 results are on record in PubChem BioAssay (NCI).

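These data come from cells grown in 96-well plates and exposed to compound for 48 hours at five concentrations. The concentration for 50% growth inhibition is given as GI50. Definition used: TGI = concentration required for complete inhibition of growth.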

Holding throughout (assay): growth of human tumour cells (NCI), 48 h
Experiment [1] relates to SK-OV-3 ovarian.
Experiment [2] relates to MDA-MB-435.
The test system of experiment [3] is NCI-H522 lung.
The subject of experiment [4] is CAKI-1 renal.
Experiment [5] relates to K-562 leukemia.
The subject of experiment [6] is MDA-N.
Experiment [7] deals with SF-268 CNS.
Experiment [8] relates to UO-31 renal.
The test system of experiment [9] is NCI/ADR-RES ovarian.
For experiment [10], the system named is SW-620 colon.

With `CCCO[C@@H]1[C@@H](OC(C)=O)[C@@H](OC(C)=O)C(C)(C)/C=C/[C@H](C)C(=O)[C@@]2(OC(C)=O)C[C@@](C)(OC(C)=O)[C@H](OC(C)=O)[C@@H]2[C@H]2OC(=O)CC[C@@]12OC(=O)c1ccccc1`, the TGI in experiment [1], in experiment [2], in experiment [3], in [4], in experiment [5] and in experiment [6] was more than 25 µM in each case. Also, the TGI in [7], in experiment [8], in experiment [9] and in experiment [10] was more than 25 µM each time.
As for `C(=Nc1ccc2c(c1)Cc1ccccc1-2)c1ccccn1`, the TGI in experiment [2], in experiment [3], in experiment [4], in experiment [5], in experiment [6] and in experiment [7] was more than 100 µM throughout. For the same compound, the TGI in experiment [8], in [9] and in experiment [10] was more than 100 µM in each case.
For the compound `COc1ccc2c(c1)c(-c1nc(-c3c[nH]c4ncccc34)cs1)cn2CCCCN1CCCCC1`, the GI50 was 1.75 µM in experiment [1], 1.61 µM in experiment [5], 1.59 µM in experiment [7] and 1.38 µM in experiment [8]. Further, the TGI in experiment [1] stood at 3.18 µM; in experiment [5], 3.49 µM; in experiment [7], 3.21 µM; in experiment [8], 2.77 µM.
As to `COc1ccc(/C=N/n2cnc3c(c2=O)SC(=C(C#N)C#N)N3c2ccccc2)cc1`, the TGI in experiment [1], in [3], in experiment [5], in experiment [7], in experiment [8] and in experiment [10] was more than 100 µM throughout.
For `CCC(=O)OCN(C)c1nc(N(C)COC(=O)CC)nc(N(C)COC(=O)CC)n1`, the TGI in experiment [1], in experiment [2], in experiment [4], in experiment [5], in experiment [6] and in experiment [8] was more than 100 µM throughout. Moreover, the TGI in [9] and in experiment [10] was more than 100 µM each time.
As to `O=C1c2ccccc2OCC12OC21C=CC(Cl)=CC1` (centres undefined), the TGI in experiment [1] is more than 100 µM; in [2], 51.5 µM; in [5], more than 100 µM; in experiment [6] it was 43.8 µM; in [7], more than 100 µM; in experiment [8], 65.1 µM. Further, the results for the TGI in experiment [9] and in experiment [10] were 50.1 µM and more than 100 µM, respectively.
Consider `CCCCC1C=Cn2c(=O)oc3c(OC(C)C)c(C)c(O)c1c32` (centres undefined), for which the TGI in experiment [1] was 13.3 µM; in experiment [2] it was 3.38 µM; in [3], 5.87 µM; in [4], 2.34 µM; in experiment [5], more than 35.3 µM; in experiment [6], 9.67 µM. The TGI in [7] was determined as 13.2 µM; in [8], 7.02 µM; in experiment [9], 5.88 µM; in experiment [10] it was 11.9 µM.
For the compound `Nc1nc(SCc2ccccc2Cl)c2[nH]cnc2n1`, the TGI in experiment [1], in experiment [3], in experiment [5], in experiment [7], in [8] and in experiment [10] was more than 100 µM in each case.
For `CCOC(=O)c1sc2nc(SC)nc(Nc3ccc4c(c3)OCCO4)c2c1N`, the TGI was 42.7 µM in [2]; 23.8 µM in experiment [3]; 49.2 µM in experiment [4]; more than 100 µM in [5]; more than 100 µM in experiment [6]; 20.4 µM in experiment [7]. Moreover, the values for the TGI in experiment [8], in experiment [9] and in experiment [10] were 36.7 µM, 44.7 µM and more than 100 µM, respectively.
`O=C(CBr)c1ccc2cc(Br)c3ccccc3c2c1`: the TGI in experiment [2] was 42.6 µM; in experiment [3], 37.6 µM; in [4] it was 38 µM; in experiment [5], 77.6 µM; in experiment [7], 47 µM; in [8], 62.7 µM. The TGI in [9] was more than 100 µM; in experiment [10] it was 74.4 µM.
In the case of `C=CCCC1(C)CCCNC1=S` (centres undefined), the TGI in experiment [1], in [5], in experiment [8] and in experiment [10] was more than 100 µM each time.
With `CCCn1cnc2c(SCc3ccc(Cl)cc3)nc(N)nc21`, the TGI in [1] was more than 100 µM; in experiment [2], 57.8 µM; in [3] it was 36.9 µM; in experiment [4], 82 µM; in [5], 48.2 µM; in [6], 55 µM. Besides, the TGI in [7] is more than 100 µM; in experiment [8], more than 100 µM; in experiment [9], 73.2 µM; in [10] it was more than 100 µM.
For `O=C(N[C@@H](Cc1coc2ccccc12)B(O)O)[C@@H]1C[C@H]2CC[C@@H]1O2`, the GI50 in experiment [1] was 9.17 µM; in [2] it was 1.76 µM; in experiment [3], 5.04 µM; in experiment [4] it was 4.47 µM; in experiment [5], 9.99 µM; in [7] it was 9.62 µM. The results for the GI50 in experiment [8], in [9] and in experiment [10] were 2 µM, 48 µM and 3.3 µM, respectively. Besides, the TGI was more than 100 µM in [1]; 4.04 µM in experiment [2]; 81.6 µM in experiment [3]; more than 100 µM in [4]; more than 100 µM in experiment [5]; more than 100 µM in experiment [7]. For the same compound, the TGI in experiment [8] was 11.3 µM; in experiment [9] it was more than 100 µM; in experiment [10], more than 100 µM.
